Test results taken from US7705118B2, “Methods for preparing internally constrained peptides and peptidomimetics” (New York University, priority 2004, dated 2010).

Columns and labels:
[1] = Circular dichroism of constrained peptide 3 and control peptide 1; format: physicochemical; conditions: aqueous buffer and TFE solutions
Experimental: The structure of constrained peptide 3 was studied with circular dichroism (“CD”). CD studies on the constrained peptide 3 and the control peptide 1 in 30 mM phosphate buffer pH 7.0 were performed to obtain a quantitative measure of the helical content. […] The relative percent helicity of peptides can theoretically be measured by the mean residue ellipticity at 222 nm (Lyu et al., “Alpha-helix Stabilization by Natural and Unnatural Amino Acids with Alkyl Side Chains,” Proc. Nat'l Acad. Sci. 88:5317-5320 (1991), which is hereby incorporated by reference in its entirety), although these estimates are not typically accurate for short helices.
CD spectra were recorded on an AVIV 202SF CD spectrometer equipped with a temperature controller using 1 mm path length cells. The scan speed was set to 5 nm/min and spectra were averaged over 5 scans. Spectral baselines were obtained under analogous conditions as that for the samples. All spectra are baseline subtracted, converted to a uniform scale of molar ellipticity, and replotted. The helix content of each peptide was determined from the mean residue CD at 222 nm, [θ]222 (deg cm^2 dmol^−1) corrected for the number of amide bonds (Chin et al., Proc. Nat'l Acad. Sci. U.S.A., 99:15416-15421 (2002); Chen et al., Biochemistry, 11:4120-4131 (1972), which are hereby incorporated by reference in their entirety). […]

[2] = Circular dichroism of Bak BH3 peptides in 20% TFE/PBS; format: physicochemical; conditions: 20% TFE in PBS, 50 μM, 25° C., Yang's method
Experimental: The α-helical conformation of constrained peptide 10a was determined by circular dichroism spectroscopy. […] The HBS α-helix 10a is roughly 46% helical as measured by Yang's method (Chen et al., Biochemistry, 11:4120-4131 (1972), which is hereby incorporated by reference in its entirety). […]
CD spectra were recorded on AVIV 202SF CD spectrometer equipped with a temperature controller using 1 mm length cells and a scan speed of 5 nm/min at 25° C. […] The helix content of each peptide was determined from the mean residue CD at 222 nm, [θ]222 (deg cm^2 dmol^−1) corrected for the number of amide bonds (Chen et al., Biochemistry 11:4120-4131 (1972), which is hereby incorporated by reference in its entirety). Percent helicity was calculated from ratio [θ]222/[θ]max, where [θ]max=−39500×[1−(2.57/n)]. The [θ]max for HBS α-helices is calculated to be −33155 for n=16 (number of amide bonds in the peptide).

Experimental for trypsin: At different time intervals, 100 μL of the above solution was taken out, quenched with 100 μL of 2% TFA aqueous solution, and then injected into reversed-phase HPLC to analyze the change in the area of the peptide peak compared to the area of internal control (tryptophan).

Row | CD spectrum [1] | proteolysis in the presence of trypsin (trypsin) | percent helicity [2] | Compound
1 | featureless spectrum | – | – | COC(=O)[C@@H](NC(=O)[C@@H](NC(=O)[C@@H](NC(=O)[C@@H](NC(=O)[C@@H](NC(=O)[C@@H](NC(=O)[C@@H](NC(=O)[C@H](NCC=O)NC(C)=O)N[C@@H](C=O)CCC(=O)O)N[C@@H](C)C=O)N[C@@H](C)C=O)N[C@@H](C)C=O)N[C@@H](C)C=O)N[C@@H](C=O)CCC(=O)O)N[C@@H](C)C=O [peptide 1]
2 | – | rapid proteolysis | ~26% | CC[C@H](C)[C@H](NC(=O)[C@H](C)NC(=O)[C@H](CC(C)C)NC(=O)[C@H](CCC(N)=O)NC(=O)[C@H](CCCNC(=N)N)NC(=O)CNC(=O)[C@@H](NC(=O)[C@H](CCC(N)=O)NC(=O)CNC(C)=O)C(C)C)C(=O)N[C@H](C(=O)NCC(=O)N[C@@H](CC(=O)O)C(=O)N[C@@H](CC(=O)O)C(=O)N[C@H](C(=O)N[C@@H](CC(N)=O)C(=O)N[C@@H](CCCNC(=N)N)C(N)=O)[C@@H](C)CC)[C@@H](C)CC [peptide 9a]
